In US8192962B2, “Processes for detecting toxic substances” (Daikin Industries, Ltd., priority 2001, dated 2012):

Tested on: Genes belonging to other category
Test: DNA chip mRNA expression in yeast, genes belonging to other category (Table 9)
Type: cell-based, Saccharomyces cerevisiae S288C
Experimental: Yeast (Saccharomyces cerevisiae S288C (α SUC2mal mel gap2 CUP1)) were incubated at 25° C. on YPD medium (yeast extract 1%, polypepton 2%, glucose 2%). One of toxic chemical substances was added to the cells at logarithmic growth phase, and the cells were further incubated for two hours. Cells were cultured without any chemical substance in the same condition, and were used as control. Concentrations of the chemical substances were defined to inhibit the growth of the yeast but not lead to death.
After completion of the incubation, the culture was centrifuged to collect the cells. To the cells, sodium acetate buffer (50 mM sodium acetate, 10 mM EDTA, 1% SDS) was added, and the mixture was shaken at 65° C. for five minutes, followed by returning to room temperature, and obtaining the supernatant, of which the procedures were repeated two times. To the supernatant, ½ amount of a solution of phenol/chloroform was added, and the mixture was centrifuged to give a supernatant, which was added with an equal amount of chloroform, and the mixture was centrifuged to give a supernatant. To the supernatant, an equal amount of isopropanol containing 0.3 M sodium acetate was added, and the mixture was allowed to stand at room temperature for 30 minutes, after which the mixture was centrifuged to give a sediment of the whole RNAs. Seventy % ethanol was added to the sediment, and the mixture was again centrifuged to give a sediment, which was then dried and dissolved in water. mRNA was isolated from the whole RNAs as followings. In view of the fact that a poly A chain is attached to the 3′ terminus of mRNA, a polynucleotide having a poly T structure which was immobilized on the surface of latex beads was used to trap the mRNA, and then the mRNA was washed and eluted with spine column (Oligotex-dT30<Super>mRNA Purification Kit, Takara). Reverse transcription of the mRNA was conducted with a reverse transcriptase (Super Script II Reverse Transcriptase; catalogue No. 18064-014, GibcoBRL) using fluorescence-labeled nucleotides to give cDNAs that were introduced with Cy3-dUTP or Cy5-dUTP during the reverse transcription.
The labeled cDNAs were dissolved in TE buffer (10mM Tris-HCl/1 mM EDTA, pH8.0), and the solution was dropped on the DNA chip containing the whole genes of yeast (DNA Chip Research Inc. Japan) so that the cDNAs were hybridized on the DNA chip at 65° C. for over 12 hours. The fluoresces intensity of the DNA chip was read with a scanner, and the ratio relative to the fluorescence intensity resulting from the absence of chemical substance was estimated as the following, which is shown in Tables 1 to 9: […]

## CCCCC[C@H](O)CC(=O)CCc1ccc(O)c(OC)c1 [(13), gingerol]
Yeast gene YKL041W
  The level of expressed mRNA in the presence of chemical substance/The level of expressed mRNA in the absence of chemical substance: 1.3
Yeast gene YKL096W
  The level of expressed mRNA in the presence of chemical substance/The level of expressed mRNA in the absence of chemical substance: 0.1
Yeast gene YKL139W
  The level of expressed mRNA in the presence of chemical substance/The level of expressed mRNA in the absence of chemical substance: 1.6
Yeast gene YKL165C
  The level of expressed mRNA in the presence of chemical substance/The level of expressed mRNA in the absence of chemical substance: 3.2
Yeast gene YKL190W
  The level of expressed mRNA in the presence of chemical substance/The level of expressed mRNA in the absence of chemical substance: 1.3
Yeast gene YKL193C
  The level of expressed mRNA in the presence of chemical substance/The level of expressed mRNA in the absence of chemical substance: 2.1
Yeast gene YKR014C
  The level of expressed mRNA in the presence of chemical substance/The level of expressed mRNA in the absence of chemical substance: 1.5
Yeast gene YLL051C
  The level of expressed mRNA in the presence of chemical substance/The level of expressed mRNA in the absence of chemical substance: 1.3
Yeast gene YLR090W
  The level of expressed mRNA in the presence of chemical substance/The level of expressed mRNA in the absence of chemical substance: 1.7
Yeast gene YLR093C
  The level of expressed mRNA in the presence of chemical substance/The level of expressed mRNA in the absence of chemical substance: 1.3
Yeast gene YLR120C
  The level of expressed mRNA in the presence of chemical substance/The level of expressed mRNA in the absence of chemical substance: 4.8
Yeast gene YLR136C
  The level of expressed mRNA in the presence of chemical substance/The level of expressed mRNA in the absence of chemical substance: 2.9
Yeast gene YLR250W
  The level of expressed mRNA in the presence of chemical substance/The level of expressed mRNA in the absence of chemical substance: 1.2
Yeast gene YLR251W
  The level of expressed mRNA in the presence of chemical substance/The level of expressed mRNA in the absence of chemical substance: 1.7
Yeast gene YLR327C
  The level of expressed mRNA in the presence of chemical substance/The level of expressed mRNA in the absence of chemical substance: 2.8
Yeast gene YMR004W
  The level of expressed mRNA in the presence of chemical substance/The level of expressed mRNA in the absence of chemical substance: 2.2
Yeast gene YMR051C
  The level of expressed mRNA in the presence of chemical substance/The level of expressed mRNA in the absence of chemical substance: 1.3
Yeast gene YMR104C
  The level of expressed mRNA in the presence of chemical substance/The level of expressed mRNA in the absence of chemical substance: 1.5
Yeast gene YMR139W
  The level of expressed mRNA in the presence of chemical substance/The level of expressed mRNA in the absence of chemical substance: 1.6
Yeast gene YMR219W
  The level of expressed mRNA in the presence of chemical substance/The level of expressed mRNA in the absence of chemical substance: 2.1
Yeast gene YMR226C
  The level of expressed mRNA in the presence of chemical substance/The level of expressed mRNA in the absence of chemical substance: 1.6
Yeast gene YMR262W
  The level of expressed mRNA in the presence of chemical substance/The level of expressed mRNA in the absence of chemical substance: 1.7
Yeast gene YMR275C
  The level of expressed mRNA in the presence of chemical substance/The level of expressed mRNA in the absence of chemical substance: 2.1
Yeast gene YMR276W
  The level of expressed mRNA in the presence of chemical substance/The level of expressed mRNA in the absence of chemical substance: 1.9
Yeast gene YMR314W
  The level of expressed mRNA in the presence of chemical substance/The level of expressed mRNA in the absence of chemical substance: 2.6
Yeast gene YNL006W
  The level of expressed mRNA in the presence of chemical substance/The level of expressed mRNA in the absence of chemical substance: 2.3
Yeast gene YNL007C
  The level of expressed mRNA in the presence of chemical substance/The level of expressed mRNA in the absence of chemical substance: 2.1
Yeast gene YNL093W
  The level of expressed mRNA in the presence of chemical substance/The level of expressed mRNA in the absence of chemical substance: 2.2
Yeast gene YNL214W
  The level of expressed mRNA in the presence of chemical substance/The level of expressed mRNA in the absence of chemical substance: 1.2
Yeast gene YNL223W
  The level of expressed mRNA in the presence of chemical substance/The level of expressed mRNA in the absence of chemical substance: 2.0
Yeast gene YNL333W
  The level of expressed mRNA in the presence of chemical substance/The level of expressed mRNA in the absence of chemical substance: 2.2
Yeast gene YNR007C
  The level of expressed mRNA in the presence of chemical substance/The level of expressed mRNA in the absence of chemical substance: 1.5
Yeast gene YNR010W
  The level of expressed mRNA in the presence of chemical substance/The level of expressed mRNA in the absence of chemical substance: 2.8
Yeast gene YNR035C
  The level of expressed mRNA in the presence of chemical substance/The level of expressed mRNA in the absence of chemical substance: 1.7
Yeast gene YOL013C
  The level of expressed mRNA in the presence of chemical substance/The level of expressed mRNA in the absence of chemical substance: 1.8
Yeast gene YOL016C
  The level of expressed mRNA in the presence of chemical substance/The level of expressed mRNA in the absence of chemical substance: 3.0
Yeast gene YOL104C
  The level of expressed mRNA in the presence of chemical substance/The level of expressed mRNA in the absence of chemical substance: 0.6
Yeast gene YOR117W
  The level of expressed mRNA in the presence of chemical substance/The level of expressed mRNA in the absence of chemical substance: 2.3
Yeast gene YOR149C
  The level of expressed mRNA in the presence of chemical substance/The level of expressed mRNA in the absence of chemical substance: 1.3
Yeast gene YOR181W
  The level of expressed mRNA in the presence of chemical substance/The level of expressed mRNA in the absence of chemical substance: 1.2
Yeast gene YOR185C
  The level of expressed mRNA in the presence of chemical substance/The level of expressed mRNA in the absence of chemical substance: 2.2
Yeast gene YOR355W
  The level of expressed mRNA in the presence of chemical substance/The level of expressed mRNA in the absence of chemical substance: 1.1
Yeast gene YOR381W
  The level of expressed mRNA in the presence of chemical substance/The level of expressed mRNA in the absence of chemical substance: 1.7
Yeast gene YOR383C
  The level of expressed mRNA in the presence of chemical substance/The level of expressed mRNA in the absence of chemical substance: 1.2
Yeast gene YPL018W
  The level of expressed mRNA in the presence of chemical substance/The level of expressed mRNA in the absence of chemical substance: 2.2
Yeast gene YPL089C
  The level of expressed mRNA in the presence of chemical substance/The level of expressed mRNA in the absence of chemical substance: 1.3
Yeast gene YPL149W
  The level of expressed mRNA in the presence of chemical substance/The level of expressed mRNA in the absence of chemical substance: 2.3
Yeast gene YPL203W
  The level of expressed mRNA in the presence of chemical substance/The level of expressed mRNA in the absence of chemical substance: 1.5
Yeast gene YPL255W
  The level of expressed mRNA in the presence of chemical substance/The level of expressed mRNA in the absence of chemical substance: 0.6
Yeast gene YPR108W
  The level of expressed mRNA in the presence of chemical substance/The level of expressed mRNA in the absence of chemical substance: 2.6
